According to patent US20090239846A1, “Novel Compounds” (Glaxo Group Limited, priority 2005, published 2009):

Columns and labels:
Recombinant human p38α = target: T1, Recombinant human p38α (Homo sapiens, UniProt Q16539); test: Fluorescence anisotropy kinase binding assay (standard or low volume); details: for active in the assay (pIC50, p38α binding): 12 nM p38α, 5 nM fluorescent ligand; for IC50: second end given as 'less than', read-out: pIC50, broad range of data upon multiple runs (converted)
T1 construct: GST; made in house
Outline: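 Activated GST-tagged recombinant human p38α (pre-activated with MBP-MKK6 DD) at 12 nM final with 5 nM rhodamine green-labelled pyridinylimidazole tracer in pH 7.5 HEPES/CHAPS/DTT/MgCl2 buffer. Test compound 0.28 nM–16.6 μM or 0.02 nM–25 μM final, 3% or 1.7% DMSO; 30–60 min at room temperature. Fluorescence anisotropy read (ex 485/em 535 nm) for Ki.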

TNFalpha = test: LPS-stimulated cytokine production in human whole blood; format: cell-based; details: LPS-stimulated TNF-alpha, bound, read-out: IC50
Procedure: Assay: Test compound concentrations were prepared at 10× concentrations and LPS prepared at 1 ug/ml (final conc. of 50 ng/ml LPS) and added in 50 uL volumes to 1.5 mL eppendorf tubes. Heparinized human whole blood was obtained from healthy volunteers and was dispensed into eppendorf tubes or multiwell plates containing compounds and LPS in 0.2-0.4 mL volumes and the tubes incubated at 37 C. In some studies, compound was incubated with blood for up to 30 min prior to addition of LPS. Following a 4 hour incubation, the tubes or plates were centrifuged to remove cells and plasma was withdrawn and frozen at −80 C. Cytokine measurement: IL-1beta and/or TNFalpha were quantified using a standardized ELISA, or similar technology. Concentrations of IL-1beta or TNFalpha were determined from standard curves of the appropriate cytokine and IC50 values for test compound (concentration that inhibited 50% of LPS-stimulated cytokine production) were calculated by linear regression analysis.

T1 sequence (Q16539 whole entry): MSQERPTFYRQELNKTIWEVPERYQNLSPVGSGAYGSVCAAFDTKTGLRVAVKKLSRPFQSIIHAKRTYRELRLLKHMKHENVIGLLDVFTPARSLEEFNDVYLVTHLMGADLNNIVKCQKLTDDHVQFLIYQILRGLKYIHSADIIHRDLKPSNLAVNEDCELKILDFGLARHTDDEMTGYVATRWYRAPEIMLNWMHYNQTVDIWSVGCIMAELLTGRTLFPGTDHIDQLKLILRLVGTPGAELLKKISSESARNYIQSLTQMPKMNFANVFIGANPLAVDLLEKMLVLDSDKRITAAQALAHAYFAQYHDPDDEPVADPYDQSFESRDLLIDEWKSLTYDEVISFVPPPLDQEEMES

SMILES	active in the assay (pIC50, p38α binding) (Recombinant human p38α)	IC50 (TNFalpha)	IC50 (Recombinant human p38α)	melting point
CNC(=O)c1ccc(C)c(-c2nc(S(C)(=O)=O)nc3c2CNC(=O)N3c2c(F)cccc2F)c1 [163(b), 3-[8-(2,6-difluorophenyl)-2-(methylsulfonyl)-7-oxo-5,6,7,8-tetrahydropyrimido[4,5-d]pyrimidin-4-yl]-N,4-dimethylbenzamide]	active	> 1000 nM	–	–
CCc1ccc(C(=O)O)cc1-c1nc(NCCN(C)C)nc2c1CNC(=O)N2c1c(F)cccc1F [Example 141, 3-(8-(2,6-difluorophenyl)-2-{[2-(dimethylamino)ethyl]amino}-7-oxo-5,6,7,8-tetrahydropyrimido[4,5-d]pyrimidin-4-yl)-4-ethylbenzoic acid]	–	> 1000 nM	≥ 1260 nM	–
CCN(CC)C(=O)c1ccc(C)c(-c2nc(N(C)CCCN(C)C)nc3c2CNC(=O)N3c2c(F)cccc2F)c1 [Example 161, 3-{8-(2,6-difluorophenyl)-2-[[3-(dimethylamino)propyl](methyl)amino]-7-oxo-5,6,7,8-tetrahydropyrimido[4,5-d]pyrimidin-4-yl}-N,N-diethyl-4-methylbenzamide]	active	> 1000 nM	–	106 to 108 °C
CCN(CC)C(=O)c1ccc(C)c(-c2nc(N3CCN(C)CC3)nc3c2CNC(=O)N3c2c(F)cccc2F)c1 [Example 162, 3-[8-(2,6-difluorophenyl)-2-(4-methyl-1-piperazinyl)-7-oxo-5,6,7,8-tetrahydropyrimido[4,5-d]pyrimidin-4-yl]-N,N-diethyl-4-methylbenzamide]	–	> 1000 nM	≥ 1260 nM	201 to 205 °C (dec.)
Cc1ccc(C(=O)Nc2cccc(S(N)(=O)=O)c2)cc1-c1nc(NCCN(C)C)nc2c1CNC(=O)N2c1c(F)cccc1F [Example 226, N-[3-(aminosulfonyl)phenyl]-3-(8-(2,6-difluorophenyl)-2-{[2-(dimethylamino)-ethyl]amino}-7-oxo-5,6,7,8-tetrahydropyrimido[4,5-d]pyrimidin-4-yl)-4-methylbenzamide]	–	> 1000 nM	–	–
